Laboratory results taken from PMC8963105, “A Novel Modulator of the Renin–Angiotensin System, Benzoylaconitine, Attenuates Hypertension by Targeting ACE/ACE2 in Enhancing Vasodilation and Alleviating Vascular Inflammation” (Frontiers in Pharmacology, 2022).

Experiments:
Ang (1–7) = assay: serum Ang (1–7) by ELISA in SHRs after 14-day oral administration; assay type: in vivo, rat; settings: oral 14 days
Excerpt: (§1) All three MDAs (BAC, BMC, and BHC) were purchased from Nature-Standard Co., Ltd. (Shanghai, China) and their purities were all over 98%. The anti-hypertensive effects of MDAs were studied in both acute and chronic experiments. The 16-week-old SHRs were used in animal experiments, and each group had six rats. In the acute experiment, drug administration was via i.v. injection. For i.v. injection, the animals were randomly assigned into four groups: vehicle (0.1% DMSO–0.9% salt solution, n = 6), low-dose group (0.6 mg kg^−1 body weight, n = 6), medium-dose group (2 mg kg^−1 body weight, n = 6), and high-dose group (6 mg kg^−1 body weight, n = 6). The drug was administered using a venous catheter. […] Blood pressure was recorded in real time.
Blood samples were collected from the left femoral artery of rats at the end point, followed by centrifugation at 1,000 × g for 15 min at 4°C. […] The concentrations of circulating ACE, ACE2, Ang I, Ang II, Ang (1–7), TNF-α, and IL-6 in serum were measured using the ELISA kits [ACE, cat#xy-R2401c, X-Y Biotechnology, Shanghai, China; ACE2, cat#xy-ACE2-Ra, X-Y Biotechnology; Ang I, cat#xy-E12541, X-Y Biotechnology; Ang II, cat#xy-R1430c, X-Y Biotechnology; Ang (1–7), cat#xy-Ang1-7-Ra, X-Y Biotechnology; TNF-α, cat#GM1149, Servicebio, Shanghai, China; IL-6, cat#GM1154, Servicebio] according to the manufacturer’s instructions. […]

ACE2 = ACE2 protein expression in HUVECs (Western blot, immunofluorescence); assay type: cell-based, human; settings: HUVECs, 25, 50, 100 μM, 24 h
Excerpt: Human umbilical vein endothelial cells (HUVECs) were isolated from umbilical cords as previously described ([Jaffe et al., 1973]). They were purchased from ATCC (cat# CRL-1444, Manassas, VA, United States) and cultured in endothelial cell medium (ECM, ScienCell, Carlsbad, CA, United States) supplemented with 5% FBS, 1% endothelial cell growth supplement, and 1% antibiotics (Sigma, St. Louis, MO, United States). Cells harvested between the third and tenth passages were used in the experiments. Cells were cultured until they were ∼80% confluent. […]
After treatment with different concentrations of BAC (Control, DMSO, 25, 50, and 100 μM, dissolved in 0.1% DMSO–DMEM) for 24 h, the cells were washed with PBS three times, fixed in 4% paraformaldehyde for 20 min, permeabilized with 0.3% Triton X-100 for 20 min, and then blocked with 5% BSA for 30 min at room temperature of 25°C. […] The samples were analyzed using a confocal laser scanning microscope (Zeiss LSM 510 META, Oberkochen, Germany).
(§2) The cell samples and tissue sample were collected and placed in ice rapidly. […] Protein concentration in cell lysates was measured using a Bio-Rad DC Protein Assay Kit […]. […]

HUVECs = assay: CCK-8 cell viability (drug cytotoxicity) in HUVECs; assay type: cell-based, human; settings: dose lower than 100 μM, 48 h
Excerpt: Human umbilical vein endothelial cells (HUVECs) were isolated from umbilical cords as previously described ([Jaffe et al., 1973]). They were purchased from ATCC (cat# CRL-1444, Manassas, VA, United States) and cultured in endothelial cell medium (ECM, ScienCell, Carlsbad, CA, United States) supplemented with 5% FBS, 1% endothelial cell growth supplement, and 1% antibiotics (Sigma, St. Louis, MO, United States). Cells harvested between the third and tenth passages were used in the experiments. Cells were cultured until they were ∼80% confluent. After pre-starving in a quiescing ECM supplemented with 1% FBS and 1% antibiotics for 24 h, the cells were treated using different concentrations of BAC (Control, DMSO, 25, 50, and 100 μM, dissolved in 0.1% DMSO–DMEM) with or without MG132, an inhibitor of proteasome, at 20 nM or 40 nM for 24 h. Then, cell samples were collected for Western blot analysis or immunofluorescence staining.
The potential of cells to maintain or recover viability after treatment with each agent was determined. Cell viability can be distinguished from the all-or-nothing states of life and death using a quantifiable index between 0 and 1 (or 0 and 100%). Cell viability was measured by a Cell Counting Kit-8 (CCK-8) Assay Kit (EnoGene, Nanjing, China). […] After 1 h of incubation, the absorbance was measured at 450 nm using a microplate reader (Thermo Fisher Scientific). […]

p-IKB-α = assay: phosphorylation of IKB-α in aorta of SHRs (Western blot); assay type: in vivo, rat; settings: oral 14 days
Excerpt: as §1, with “catheter. In chronic experiments, the animals were randomly assigned into five groups: vehicle (5% Tween 80–0.9% salt solution, n = 6), captopril group (5 mg kg^−1 body weight, n = 6), low-dose group (3 mg kg^−1 body weight, n = 6), medium-dose group (10 mg kg^−1 body weight, n = 6), and high-dose group (30 mg kg^−1 body weight, n = 6). Oral administration with drug or 5% Tween 80–0.9% salt solution was carried out once a day, and continued for 14 days.” for “catheter.”
as §2

## CCN1CC2(COC)C(O)CC(OC)C34C5CC6(O)C(OC)C(O)C(O)(C5C6OC(=O)c5ccccc5)C(C(OC)C23)C14 (stereo not shown) [BAC, Benzoylaconitine]
Ang (1–7)
  level of Ang (1–7) in blood: significantly increased
ACE2
  protein expression of ACE2: does not affect
HUVECs
  cell viability (toxicity on HUVECs): no significant effect
p-IKB-α
  phosphorylation of IKB-α: downregulated
